Reference: publication PMC10301922, “Anti-Oxidant, Anti-Mutagenic Activity and Safety Evaluation of Antrocin” (Toxics, 2023)
Read-outs that look alike come from different tables or passages of the source.

Columns and labels:
[1] = test system: CHO-K1 cells
Method: A chromosomal aberration test was performed to evaluate the potential for antrocin to induce structural chromosomal abnormalities in Chinese hamster ovary cells (CHO-K1 cells). The test followed the protocol in Genetic Toxicology Testing: A Laboratory Manual. CHO-K1 cells were obtained from the Bioresource Collection and Research Center (BCRC), and were cultured in Ham F-12 medium with 10% fetal bovine serum and 0.1% Penicillin–Streptomycin at 5% CO2 in a 37 °C incubator. […] Three experimental conditions were conducted: 3 h with and without S9 (short term), and 19 h without S9 (long term). […] CHO-K1 cells were cultured in 25T flasks, incubated with samples for 3 or 19 h with and without S9, and harvested at the time of 1.5 cell cycle lengths (about 21 h). Two hours before harvesting, 100 μL colcemid (10 μg/mL) was added to disrupt cell mitosis. Collected cells were then treated with 0.6% KCl solution and fixed with acetic acid–methanol (1:3) solution. After fixation, cells were stained with Diff-Quik on a glass slide. A total of 300 cells in metaphase per group were observed, and the number of chromosomal aberrations was recorded. The chromosomal aberration rate (%) was calculated using the following formula: (number of cells with aberrations/total number of cells examined) × 100. A Student’s t-test was used for statistical analysis, and a significant increase (p < 0.05) compared to the negative control indicated a positive response.

[2] = test system: Salmonella typhimurium TA1535; experiment: Antimutagenicity test, TA1535
[3] = test system: Salmonella typhimurium TA1537; experiment: Ames test (plate incorporation), TA1537
[4] = test system: Sprague Dawley rats; experiment: 28-day oral toxicity test: serum biochemistry
[5] = TA1535, with S9, mutagen 2-AA 25 μg/plate, antrocin 0.025 mg/plate
[6] = TA1535, with S9, mutagen 2-AA 25 μg/plate, antrocin 0.05 mg/plate
[7] = TA1535, with S9, mutagen 2-AA 25 μg/plate, antrocin […]
[8] = TA1535, without S9, mutagen sodium azide 5 μg/plate, antrocin 0.025 mg/plate
[9] = TA1535, without S9, mutagen sodium azide 5 μg/plate, antrocin 0.05 mg/plate
[10] = TA1535, without S9, mutagen sodium azide 5 μg/plate, antrocin […]
[11] = female rats, 7.5 mg/kg oral 28 d
[12] = female rats, 37.5 mg/kg oral 28 d
[13] = male rats, 37.5 mg/kg oral 28 d

C=C1CC[C@H]2C(C)(C)CCC[C@@]23C(=O)OC[C@@H]13 [Antrocin, (-)-Antrocin]
chromosomal aberration frequency versus negative control ([1]; 25-100 μg/mL, short-term with S9, short-term without S9, long-term exposure): no significant differences | Frequency of Chromosomal Aberration (%) ([1]; with S9 (3 h), 25 μg/mL): 5.3 ± 1.2% | Total Aberrations ([1]; with S9 (3 h), 25 μg/mL): 16/300 | Frequency of Chromosomal Aberration (%) ([1]; with S9 (3 h), 50 μg/mL): 6.3 ± 2.1% | Total Aberrations ([1]; with S9 (3 h), 50 μg/mL): 19/300 | Frequency of Chromosomal Aberration (%) ([1]; with S9 (3 h), 100 μg/mL): 6.3 ± 2.1% | Total Aberrations ([1]; with S9 (3 h), 100 μg/mL): 19/300 | Frequency of Chromosomal Aberration (%) ([1]; without S9 (3 h), 25 μg/mL): 4.3 ± 3.8% | Total Aberrations ([1]; without S9 (3 h), 25 μg/mL): 13/300 | Frequency of Chromosomal Aberration (%) ([1]; without S9 (3 h), 50 μg/mL): 4.3 ± 2.9% | Total Aberrations ([1]; without S9 (3 h), 50 μg/mL): 13/300 | Frequency of Chromosomal Aberration (%) ([1]; without S9 (3 h), 100 μg/mL): 5.3 ± 2.1% | Total Aberrations ([1]; without S9 (3 h), 100 μg/mL): 16/300 | Frequency of Chromosomal Aberration (%) ([1]; without S9 (19 h), 25 μg/mL): 9.3 ± 1.2% | Total Aberrations ([1]; without S9 (19 h), 25 μg/mL): 28/300 | Frequency of Chromosomal Aberration (%) ([1]; without S9 (19 h), 50 μg/mL): 10.3 ± 2.5% | Total Aberrations ([1]; without S9 (19 h), 50 μg/mL): 31/300 | Frequency of Chromosomal Aberration (%) ([1]; without S9 (19 h), 100 μg/mL): 7.3 ± 1.5% | Total Aberrations ([1]; without S9 (19 h), 100 μg/mL): 22/300 | Inhibition (%) of mutagenicity [2, 5]: 20.49% | Number of Revertant [2, 5]: 217.3 ± 10.2 Colony/Plate | Inhibition (%) of mutagenicity [2, 6]: 33.25% | Number of Revertant [2, 6]: 184.3 ± 3.8 Colony/Plate | Inhibition (%) of mutagenicity [2, 7]: 8.63% | Number of Revertant [2, 7]: 248.0 ± 9.5 Colony/Plate | Inhibition (%) of mutagenicity [2, 8]: 16.74% | Number of Revertant [2, 8]: 1095.0 ± 28.0 Colony/Plate | Inhibition (%) of mutagenicity [2, 9]: 25.80% | Number of Revertant [2, 9]: 977.0 ± 18.1 Colony/Plate | Inhibition (%) of mutagenicity [2, 10]: 4.40% | Number of Revertant [2, 10]: 1255.7 ± 47.7 Colony/Plate | Number of Revertant ([3]; TA1537, with S9, 0.003125 mg/plate): 11.7 ± 1.9 Colony/Plate | Number of Revertant ([3]; TA1537, with S9, 0.00625 mg/plate): 6.7 ± 2.4 Colony/Plate | Number of Revertant ([3]; TA1537, with S9, 0.025 mg/plate): 10.3 ± 2.1 Colony/Plate | Number of Revertant ([3]; TA1537, with S9, 0.05 mg/plate): 6.0 ± 1.4 Colony/Plate | Number of Revertant ([3]; TA1537, without S9, 0.003125 mg/plate): 14.3 ± 2.6 Colony/Plate | Number of Revertant ([3]; TA1537, without S9, 0.00625 mg/plate): 8.7 ± 0.5 Colony/Plate | Number of Revertant ([3]; TA1537, without S9, 0.025 mg/plate): 13.0 ± 2.2 Colony/Plate | Number of Revertant ([3]; TA1537, without S9, 0.05 mg/plate): 9.7 ± 0.9 Colony/Plate | A/G [4, 11]: 1.9 ± 0.2 | ALP [4, 11]: 147.4 ± 27.6 U/L | ALT [4, 11]: 24.2 ± 1.9 U/L | AST [4, 11]: 58.0 ± 8.5 U/L | Albumin [4, 11]: 3.7 ± 0.2 g/dL | Amylase [4, 11]: 1280.6 ± 111.3 U/L | BUN [4, 11]: 12.0 ± 1.0 mg/dL | CK [4, 11]: 100.2 ± 30.8 U/L | Ca^2+ [4, 11]: 9.9 ± 0.1 mg/dL | Cholesterol [4, 11]: 51.2 ± 9.8 mg/dL | Creatinine [4, 11]: 0.4 ± 0.0 mg/dL | GGT [4, 11]: 1–2 U/L | Globulin [4, 11]: 1.9 ± 0.1 g/dL | Glucose [4, 11]: 182.4 ± 42.9 mg/dL | HDL-C [4, 11]: 16.0 ± 3.4 mg/dL | K^+ [4, 11]: 5.2 ± 0.2 | LDH [4, 11]: 92.4 ± 73.8 U/L | Mg^2+ [4, 11]: 2.1 ± 0.1 | Na^+ [4, 11]: 139.2 ± 1.6 | Phosphate [4, 11]: 8.5 ± 1.0 mg/dL | TB [4, 11]: <0.1 mg/dL | TG [4, 11]: 32.8 ± 5.2 mg/dL | TP [4, 11]: 5.6 ± 0.2 | UA [4, 11]: 0.9 ± 0.1 mg/dL | A/G [4, 12]: 1.7 ± 0.1 | ALP [4, 12]: 116.4 ± 35.7 U/L | ALT [4, 12]: 32.6 ± 6.2 U/L | AST [4, 12]: 72.6 ± 7.4 U/L | Albumin [4, 12]: 3.8 ± 0.2 g/dL | Amylase [4, 12]: 1240.4 ± 239.9 U/L | BUN [4, 12]: 11.0 ± 0.7 mg/dL | CK [4, 12]: 129.8 ± 59.5 U/L | Ca^2+ [4, 12]: 10.2 ± 0.2 mg/dL | Cholesterol [4, 12]: 47.0 ± 11.8 mg/dL | Cl^− [4, 12]: 104.2 ± 1.3 | Creatinine [4, 12]: 0.3 ± 0.1 mg/dL | GGT [4, 12]: 1–2 U/L | Globulin [4, 12]: 2.2 ± 0.1 g/dL | Glucose [4, 12]: 138.2 ± 21.7 mg/dL | HDL-C [4, 12]: 14.6 ± 3.8 mg/dL | K^+ [4, 12]: 5.0 ± 0.7 | LDH [4, 12]: 125.4 ± 96.2 U/L | Mg^2+ [4, 12]: 2.4 ± 0.3 | Na^+ [4, 12]: 142.6 ± 1.1 | Phosphate [4, 12]: 8.5 ± 0.5 mg/dL | TB [4, 12]: <0.1 mg/dL | TG [4, 12]: 27.2 ± 8.1 mg/dL | TP [4, 12]: 6.0 ± 0.3 | UA [4, 12]: 1.3 ± 0.6 mg/dL | A/G ([4]; male rats, 7.5 mg/kg oral 28 d): 1.8 ± 0.1 | ALP ([4]; male rats, 7.5 mg/kg oral 28 d): 238.4 ± 43.9 U/L | ALT ([4]; male rats, 7.5 mg/kg oral 28 d): 28.2 ± 3.1 U/L | AST ([4]; male rats, 7.5 mg/kg oral 28 d): 61.4 ± 4.3 U/L | Albumin ([4]; male rats, 7.5 mg/kg oral 28 d): 3.4 ± 0.1 g/dL | Amylase ([4]; male rats, 7.5 mg/kg oral 28 d): 1931.0 ± 241.1 U/L | BUN ([4]; male rats, 7.5 mg/kg oral 28 d): 11.2 ± 1.3 mg/dL | CK ([4]; male rats, 7.5 mg/kg oral 28 d): 185.6 ± 96.1 U/L | Ca^2+ ([4]; male rats, 7.5 mg/kg oral 28 d): 9.7 ± 0.2 mg/dL | Cholesterol ([4]; male rats, 7.5 mg/kg oral 28 d): 41.2 ± 6.3 mg/dL | Creatinine ([4]; male rats, 7.5 mg/kg oral 28 d): 0.3 ± 0.0 mg/dL | GGT ([4]; male rats, 7.5 mg/kg oral 28 d): <1 U/L | Globulin ([4]; male rats, 7.5 mg/kg oral 28 d): 1.9 ± 0.1 g/dL | Glucose ([4]; male rats, 7.5 mg/kg oral 28 d): 178.0 ± 25.7 mg/dL | HDL-C ([4]; male rats, 7.5 mg/kg oral 28 d): 12.8 ± 1.5 mg/dL | K^+ ([4]; male rats, 7.5 mg/kg oral 28 d): 6.5 ± 0.3 | LDH ([4]; male rats, 7.5 mg/kg oral 28 d): 219.6 ± 139.5 U/L | Mg^2+ ([4]; male rats, 7.5 mg/kg oral 28 d): 2.0 ± 0.1 | Na^+ ([4]; male rats, 7.5 mg/kg oral 28 d): 141.8 ± 0.8 | Phosphate ([4]; male rats, 7.5 mg/kg oral 28 d): 9.1 ± 0.9 mg/dL | TB ([4]; male rats, 7.5 mg/kg oral 28 d): <0.1 mg/dL | TG ([4]; male rats, 7.5 mg/kg oral 28 d): 33.0 ± 8.1 mg/dL | TP ([4]; male rats, 7.5 mg/kg oral 28 d): 5.3 ± 0.2 | UA ([4]; male rats, 7.5 mg/kg oral 28 d): 1.5 ± 0.1 mg/dL | A/G [4, 13]: 1.8 ± 0.1 | ALP [4, 13]: 256.8 ± 44.0 U/L | ALT [4, 13]: 27.6 ± 2.1 U/L | AST [4, 13]: 60.2 ± 3.3 U/L | Albumin [4, 13]: 3.5 ± 0.2 g/dL | Amylase [4, 13]: 2016.4 ± 289.7 U/L | BUN [4, 13]: 11.6 ± 1.8 mg/dL | CK [4, 13]: 156.4 ± 31.1 U/L | Ca^2+ [4, 13]: 9.9 ± 0.4 mg/dL | Cholesterol [4, 13]: 44.0 ± 2.5 mg/dL | Cl^− [4, 13]: 104.6 ± 2.1 | Creatinine [4, 13]: 0.3 ± 0.0 mg/dL | GGT [4, 13]: <1 U/L | Globulin [4, 13]: 2.0 ± 0.2 g/dL | Glucose [4, 13]: 178.0 ± 14.5 mg/dL | HDL-C [4, 13]: 15.2 ± 2.8 mg/dL | K^+ [4, 13]: 6.4 ± 0.6 | LDH [4, 13]: 109.8 ± 33.5 U/L | Mg^2+ [4, 13]: 2.1 ± 0.2 | Na^+ [4, 13]: 141.4 ± 2.3 | Phosphate [4, 13]: 9.6 ± 1.6 mg/dL | TB [4, 13]: <0.1 mg/dL | TG [4, 13]: 46.2 ± 8.3 mg/dL | TP [4, 13]: 5.5 ± 0.4 | UA [4, 13]: 1.6 ± 0.3 mg/dL
